# Source: patent publication US20100311714A1, “1H-IMIDAZO[4,5-c]QUINOLINONE COMPOUNDS” (priority 2009, published 2010)
# System: PKB Ser473 phosphorylation in Rat1-myr-HA-p110 delta cells
# Test: Reverse protein array, PKB Ser473 phosphorylation in Rat1-myr-HA-p110 delta cells
# Format: cell-based
# Settings: Rattus norvegicus, 0.5 h, 30 minutes compound incubation, read-out: p-PKB/IC50_delta
row,IC50,Compound
1,8.3 nM,"CCNc1cc(-c2ccc3ncc4c(c3c2)n(-c2ccc(OC)nc2C)c(=O)n4C)cnc1C [Example 11.7, 8-(5-Ethylamino-6-methyl-pyridin-3-yl)-1-(6-methoxy-2-methyl-pyridin-3-yl)-3-methyl-1,3-dihydro-imidazo[4,5-c]quinolin-2-one]"
2,< 4.57 nM,"CNc1cc(-c2ccc3ncc4c(c3c2)n(-c2ccc(N(C)C)nc2C)c(=O)n4C)cnc1C [Example 19.2, 1-(6-Dimethylamino-2-methyl-pyridin-3-yl)-3-methyl-8-(6-methyl-5-methylamino-pyridin-3-yl)-1,3-dihydro-imidazo[4,5-c]quinolin-2-one]"
3,412 nM,"COc1ccc(-n2c(=O)n(C)c3cnc4ccc(-c5ccc6nccn6c5)cc4c32)c(OC)n1 [Example 8.10, 1-(2,6-Dimethoxy-pyridin-3-yl)-8-imidazo[1,2-a]pyridin-6-yl-3-methyl-1,3-dihydro-imidazo[4,5-c]quinolin-2-one]"
4,113 nM,"CCOc1ccc(-c2ccc3ncc4c(c3c2)n(-c2ccc(OCCOC)nc2C)c(=O)n4C)cn1 [Example 13.1, 8-(6-Ethoxy-pyridin-3-yl)-1-[6-(2-methoxy-ethoxy)-2-methyl-pyridin-3-yl]-3-methyl-1,3-dihydro-imidazo[4,5-c]quinolin-2-one]"
5,15.5 nM,"COc1ncccc1-n1c(=O)n(C)c2cnc3ccc(-c4cnc(N)c(C(F)(F)F)c4)cc3c21 [Example 1.3, 8-(6-Amino-5-trifluoromethyl-pyridin-3-yl)-1-(2-methoxy-pyridin-3-yl)-3-methyl-1,3-dihydro-imidazo[4,5-c]quinolin-2-one]"
6,25.5 nM,"Cc1nc(N2CC(F)(F)C(F)(F)C2)ccc1-n1c(=O)n(C)c2cnc3ccc(-c4cncc(C(C)(C)O)c4)cc3c21 [Example 35.1, 8-[5-(1-Hydroxy-1-methyl-ethyl)-pyridin-3-yl]-3-methyl-1-[2-methyl-6-(3,3,4,4-tetrafluoro-pyrrolidin-1-yl)-pyridin-3-yl]-1,3-dihydro-imidazo[4,5-c]quinolin-2-one]"
7,212 nM,"CCOc1ccc(-c2ccc3ncc4c(c3c2)n(-c2ccc(N(C)CCOC)nc2C)c(=O)n4C)cn1 [Example 15.3, 8-(6-Ethoxy-pyridin-3-yl)-1-{6-[(2-methoxy-ethyl)-methyl-amino]-2-methyl-pyridin-3-yl}-3-methyl-1,3-dihydro-imidazo[4,5-c]quinolin-2-one]"
8,210 nM,"COCCOc1ccc(-n2c(=O)n(C)c3cnc4ccc(-c5cnc(COC)c(OC)c5)cc4c32)c(C)n1 [Example 22.3, 1-[6-(2-Methoxy-ethoxy)-2-methyl-pyridin-3-yl]-8-(5-methoxy-6-methoxymethyl-pyridin-3-yl)-3-methyl-1,3-dihydro-imidazo[4,5-c]quinolin-2-one]"
9,74.9 nM,"COCCOc1cc(-c2ccc3ncc4c(c3c2)n(-c2ccc(OC)nc2OC)c(=O)n4C)cnc1C [Example 8.9, 1-(2,6-Dimethoxy-pyridin-3-yl)-8-[5-(2-methoxy-ethoxy)-6-methyl-pyridin-3-yl]-3-methyl-1,3-dihydro-imidazo[4,5-c]quinolin-2-one]"
10,37.9 nM,"CNc1ncc(-c2ccc3ncc4c(c3c2)n(-c2ccc(F)nc2C)c(=O)n4C)cc1C(F)(F)F [Example 7.13, 1-(6-Fluoro-2-methyl-pyridin-3-yl)-3-methyl-8-(6-methylamino-5-trifluoromethyl-pyridin-3-yl)-1,3-dihydro-imidazo[4,5-c]quinolin-2-one]"
11,31.3 nM,"CNc1ccc(-c2ccc3ncc4c(c3c2)n(-c2ccc(N(C)CCOC)nc2C)c(=O)n4C)cn1 [Example 15.4, 1-{6-[(2-Methoxy-ethyl)-methyl-amino]-2-methyl-pyridin-3-yl}-3-methyl-8-(6-methylamino-pyridin-3-yl)-1,3-dihydro-imidazo[4,5-c]quinolin-2-one]"
12,407 nM,"Cc1cc(F)ncc1-n1c(=O)n(C)c2cnc3ccc(-c4cnc5c(ccn5C)c4)cc3c21 [Example 16.5, 1-(6-Fluoro-4-methyl-pyridin-3-yl)-3-methyl-8-(1-methyl-1H-pyrrolo[2,3-b]pyridin-5-yl)-1,3-dihydro-imidazo[4,5-c]quinolin-2-one]"
13,172 nM,"CCOCc1cc(-c2ccc3ncc4c(c3c2)n(-c2ccc(F)nc2C)c(=O)n4C)cnc1N [Example 7.15, 8-(6-Amino-5-ethoxymethyl-pyridin-3-yl)-1-(6-fluoro-2-methyl-pyridin-3-yl)-3-methyl-1,3-dihydro-imidazo[4,5-c]quinolin-2-one]"
14,59.7 nM,"COCCN(C)c1ccc(-n2c(=O)n(C)c3cnc4ccc(-c5cncc(N)c5)cc4c32)c(C)n1 [Example 15.8, 8-(5-Amino-pyridin-3-yl)-1-{6-[(2-methoxy-ethyl)-methyl-amino]-2-methyl-pyridin-3-yl}-3-methyl-1,3-dihydro-imidazo[4,5-c]quinolin-2-one]"
15,38.8 nM,"COCCN(C)c1ccc(-n2c(=O)n(C)c3cnc4ccc(-c5cnc(CO)c(OC)c5)cc4c32)c(C)n1 [Example 15.9, 8-(6-Hydroxymethyl-5-methoxy-pyridin-3-yl)-1-{6-[(2-methoxy-ethyl)-methyl-amino]-2-methyl-pyridin-3-yl}-3-methyl-1,3-dihydro-imidazo[4,5-c]quinolin-2-one]"
16,194 nM,"COCC(=O)Nc1ccc(-n2c(=O)n(C)c3cnc4ccc(-c5cncc(N)c5)cc4c32)c(C)n1 [Example 20.1, N-{5-[8-(5-Amino-pyridin-3-yl)-3-methyl-2-oxo-2,3-dihydro-imidazo[4,5-c]quinolin-1-yl]-6-methyl-pyridin-2-yl}-2-methoxy-acetamide]"
17,20.5 nM,"CNc1ncc(-c2ccc3ncc4c(c3c2)n(-c2cccnc2C)c(=O)n4C)cn1 [Example 2.2, 3-Methyl-8-(2-methylamino-pyrimidin-5-yl)-1-(2-methyl-pyridin-3-yl)-1,3-dihydro-imidazo[4,5-c]quinolin-2-one]"
18,140 nM,"CNC(=O)c1cc(-c2ccc3ncc4c(c3c2)n(-c2ccc(F)nc2C)c(=O)n4C)cnc1N [Example 7.14, 2-Amino-5-[1-(6-fluoro-2-methyl-pyridin-3-yl)-3-methyl-2-oxo-2,3-dihydro-1H-imidazo[4,5-c]quinolin-8-yl]-N-methyl-nicotinamide]"
19,40.2 nM,"COc1nc(N2CCNCC2)ccc1-n1c(=O)n(C)c2cnc3ccc(-c4cnc(N(C)C)nc4)cc3c21 [Example 9.4, 8-(2-Dimethylamino-pyrimidin-5-yl)-1-(2-methoxy-6-piperazin-1-yl-pyridin-3-yl)-3-methyl-1,3-dihydro-imidazo[4,5-c]quinolin-2-one]"
20,26 nM,"CNc1ccc(-c2ccc3ncc4c(c3c2)n(-c2ccc(N3CCCC3)nc2C)c(=O)n4C)cn1 [Example 25.1, 3-Methyl-8-(6-methylamino-pyridin-3-yl)-1-(2-methyl-6-pyrrolidin-1-yl-pyridin-3-yl)-1,3-dihydro-imidazo[4,5-c]quinolin-2-one]"
21,10.7 nM,"COc1ccc(-n2c(=O)n(C)c3cnc4ccc(-c5cnc(N)c(C(F)(F)F)c5)cc4c32)c(OC)n1 [Example 8.1, 8-(6-Amino-5-trifluoromethyl-pyridin-3-yl)-1-(2,6-dimethoxy-pyridin-3-yl)-3-methyl-1,3-dihydro-imidazo[4,5-c]quinolin-2-one]"
22,8.1 nM,"CCNc1cc(-c2ccc3ncc4c(c3c2)n(-c2ccc(N3CC(F)(F)C3)nc2C)c(=O)n4C)cnc1CO [Example 24.3, 1-[6-(3,3-Difluoro-azetidin-1-yl)-2-methyl-pyridin-3-yl]-8-(5-ethylamino-6-hydroxymethyl-pyridin-3-yl)-3-methyl-1,3-dihydro-imidazo[4,5-c]quinolin-2-one]"
23,197 nM,"CNc1ccc(-c2ccc3ncc4c(c3c2)n(-c2ccc(NC(=O)COC)nc2C)c(=O)n4C)cn1 [Example 20.4, 2-Methoxy-N-{6-methyl-5-[3-methyl-8-(6-methylamino-pyridin-3-yl)-2-oxo-2,3-dihydro-imidazo[4,5-c]quinolin-1-yl]-pyridin-2-yl}-acetamide]"
24,59.6 nM,"CCOc1ccc(-c2ccc3ncc4c(c3c2)n(-c2cccnc2OC)c(=O)n4C)cn1 [Example 1.5, 8-(6-Ethoxy-pyridin-3-yl)-1-(2-methoxy-pyridin-3-yl)-3-methyl-1,3-dihydro-imidazo[4,5-c]quinolin-2-one]"
25,612 nM,"COc1ncccc1-n1c(=O)n(C)c2cnc3ccc(-c4ccc(F)nc4)cc3c21 [Example 1.8, 8-(6-Fluoro-pyridin-3-yl)-1-(2-methoxy-pyridin-3-yl)-3-methyl-1,3-dihydro-imidazo[4,5-c]quinolin-2-one]"
26,97.8 nM,"CNc1ncc(-c2ccc3ncc4c(c3c2)n(-c2ccc(F)nc2C)c(=O)n4C)cc1F [Example 7.12, 8-(5-Fluoro-6-methylamino-pyridin-3-yl)-1-(6-fluoro-2-methyl-pyridin-3-yl)-3-methyl-1,3-dihydro-imidazo[4,5-c]quinolin-2-one]"
27,74.5 nM,"COc1cc(-c2ccc3ncc4c(c3c2)n(-c2ccc(N(C)C)nc2C)c(=O)n4C)cnc1CO [Example 19.4, 1-(6-Dimethylamino-2-methyl-pyridin-3-yl)-8-(6-hydroxymethyl-5-methoxy-pyridin-3-yl)-3-methyl-1,3-dihydro-imidazo[4,5-c]quinolin-2-one]"
28,412 nM,"CCOc1ccc(-c2ccc3ncc4c(c3c2)n(-c2cncc(C)c2)c(=O)n4C)cn1 [Example 17.1, 8-(6-Ethoxy-pyridin-3-yl)-3-methyl-1-(5-methyl-pyridin-3-yl)-1,3-dihydro-imidazo[4,5-c]quinolin-2-one]"
29,74.3 nM,"COc1ccc(-c2ccc3ncc4c(c3c2)n(-c2cccnc2)c(=O)n4C)cc1OC [Example 5.2, 8-(3,4-Dimethoxy-phenyl)-3-methyl-1-pyridin-3-yl-1,3-dihydro-imidazo[4,5-c]quinolin-2-one]"
30,53.3 nM,"CNc1ncc(-c2ccc3ncc4c(c3c2)n(-c2ccc(N(C)CCOC)nc2C)c(=O)n4C)cn1 [Example 15.2, 1-{6-[(2-Methoxy-ethyl)-methyl-amino]-2-methyl-pyridin-3-yl}-3-methyl-8-(2-methylamino-pyrimidin-5-yl)-1,3-dihydro-imidazo[4,5-c]quinolin-2-one]"
